Converted amounts (≈) assume the structure as drawn.
Experiments:
[1] = system: Mycobacterium tuberculosis; test: Antitubercular activity against Mycobacterium tuberculosis H37Rv after 15 days by turbidometric method; type: functional; conditions: 360 h
[2] = Metabolic stability in human liver microsomes assessed as compound remaining at 1 uM after 120 mins in presence of G-6-P, G-6-PDH, MgCl2 and NADP+ by LC-MS/MS analysis (reference value: 100%)
[3] = system: Mycobacterium tuberculosis; test: Bacteriostatic activity against Mycobacterium tuberculosis H37Rv assessed as colony forming units at 0.002 to 64 ug/ml measured day 3 post dose by time kill assay (reference value: 0 log10CFU/ml); type: functional
Escherichia coli = test: Antibacterial activity against Escherichia coli ATCC 25922 after 15 days by turbidometric method; type: functional; conditions: ATCC 25922, 360 h
[4] = system: Mycobacterium tuberculosis; test: Bacteriostatic activity against Mycobacterium tuberculosis H37Rv assessed as colony forming units at 0.002 to 64 ug/ml measured day 7 post dose by time kill assay (reference value: 0 log10CFU/ml); type: functional
Enterococcus faecium = test: Antibacterial activity against Enterococcus faecium ATCC 51559 after 15 days by turbidometric method; type: functional; conditions: ATCC 51559, 360 h
Pseudomonas aeruginosa = test: Antibacterial activity against Pseudomonas aeruginosa ATCC 15442 after 15 days by turbidometric method; type: functional; conditions: ATCC 15442, 360 h
HepG2 = test: Cytotoxicity against human HepG2 cells after 24 hrs by MTT assay; type: cell-based; conditions: HepG2, 24 h
[5] = AUClast in BALB/c mouse at 30 mg/kg, po; type: ADME, organism-based; design: dose 30 mg/kg, route oral, time 0 - last; conditions: in vivo
[6] = Tmax in BALB/c mouse at 30 mg/kg, po; type: ADME, organism-based; conditions: in vivo
[7] = MRTlast in BALB/c mouse at 30 mg/kg, po; type: ADME, organism-based; conditions: in vivo
Acinetobacter baumannii = test: Antibacterial activity against Acinetobacter baumannii ATCC 19606 after 15 days by turbidometric method; type: functional; conditions: ATCC 19606 = CIP 70.34 = JCM 6841
[8] = Metabolic stability in human liver microsomes assessed as compound remaining at 1 uM after 30 mins in presence of G-6-P, G-6-PDH, MgCl2 and NADP+ by LC-MS/MS analysis (reference value: 100%)
Staphylococcus aureus = test: Antibacterial activity against Staphylococcus aureus ATCC 33591 after 15 days by turbidometric method; type: functional; conditions: ATCC 33591, 360 h
[9] = Half life in BALB/c mouse at 30 mg/kg, po; type: ADME, organism-based; conditions: in vivo
[10] = Metabolic stability in human liver microsomes assessed as compound remaining at 1 uM after 15 mins in presence of G-6-P, G-6-PDH, MgCl2 and NADP+ by LC-MS/MS analysis (reference value: 100%)
[11] = system: Mycobacterium tuberculosis; test: Bacteriostatic activity against Mycobacterium tuberculosis H37Rv assessed as colony forming units at 0.002 to 64 ug/ml measured day 21 post dose by time kill assay (reference value: 0 log10CFU/ml); type: functional
Klebsiella pneumoniae = test: Antibacterial activity against Klebsiella pneumoniae ATCC 700603 after 15 days by turbidometric method; type: functional; conditions: Klebsiella pneumoniae, 700603, 360 h
[12] = Cmax in BALB/c mouse at 30 mg/kg, po; type: ADME, organism-based; design: dose 30 mg/kg, route oral; conditions: in vivo
[13] = AUC (infinity) in BALB/c mouse at 30 mg/kg, po; type: ADME, organism-based; design: dose 30 mg/kg, time infinity, route oral; conditions: in vivo
[14] = Extrapolated AUC in BALB/c mouse at 30 mg/kg, po; type: ADME, organism-based; conditions: in vivo
[15] = system: Mycobacterium tuberculosis; test: Bacteriostatic activity against Mycobacterium tuberculosis H37Rv assessed as colony forming units at 0.002 to 64 ug/ml measured day 14 post dose by time kill assay (reference value: 0 log10CFU/ml); type: functional
[16] = Metabolic stability in human liver microsomes assessed as compound remaining at 1 uM after 120 mins by LC-MS/MS analysis (reference value: 100%)
[17] = Metabolic stability in human liver microsomes assessed as compound remaining at 1 uM after 60 mins in presence of G-6-P, G-6-PDH, MgCl2 and NADP+ by LC-MS/MS analysis (reference value: 100%)

SMILES: N#Cc1cccc(-c2nc(CN3CCN(c4ccnc5cc(Cl)ccc45)CC3)no2)c1
- MIC [1]: 64 µg/mL (≈ 149 µM)

SMILES: CC(C)c1ccc(-c2nc(CN3CCN(c4ccnc5cc(-c6cc(F)cc(F)c6)ccc45)CC3)no2)cc1
- MIC [1]: 32 µg/mL (≈ 60.9 µM)

SMILES: CC(C)c1ccc(-c2nc(CN3CCN(c4ccnc5cc(Cl)ccc45)CC3)no2)cc1
- remaining at 2 h, 1 µM [2]: 39.7%
- Emax [3]: 0.2 log10CFU/ml
- MIC (Escherichia coli): > 32 µg/mL
- Emax [4]: 1.1 log10CFU/ml
- MIC (Enterococcus faecium): > 32 µg/mL
- MIC (Pseudomonas aeruginosa): > 32 µg/mL
- IC50 (HepG2): > 100 µM
- MIC [1]: 0.5 µg/mL (≈ 1.12 µM)
- AUC(0-t) [5]: 5270 ng·h/mL
- Tmax [6]: 60 min
- MRT last [7]: 1.5 h
- MIC (Acinetobacter baumannii): > 32 µg/mL
- remaining at 0.5 h, 1 µM [8]: 67.2%
- MIC (Staphylococcus aureus): > 32 µg/mL
- half-life [9]: 97.8 min
- remaining at 0.25 h, 1 µM [10]: 82%
- Emax [11]: 0.9 log10CFU/ml
- MIC (Klebsiella pneumoniae): > 32 µg/mL
- Cmax [12]: 2500 ng/mL
- AUC(0-inf) [13]: 5330 ng·h/mL
- %AUCextra [14]: 1.17%
- Emax [15]: 0.9 log10CFU/ml
- remaining at 2 h, 1 µM [16]: 89.2%
- remaining at 1 h, 1 µM [17]: 55.3%

SMILES: Cc1cccc(-c2nc(CN3CCN(c4ccnc5cc(-c6ccncc6)ccc45)CC3)no2)c1C
- MIC [1]: 2 µg/mL (≈ 4.2 µM)

SMILES: N#Cc1cccc(-c2nc(CN3CCN(c4ccnc5cc(-c6cc(F)cc(F)c6)ccc45)CC3)no2)c1
- MIC [1]: > 256 µg/mL

SMILES: CC(C)c1ccc(-c2nc(CN3CCN(c4ccnc5cc(-c6ccncc6)ccc45)CC3)no2)cc1
- MIC [1]: 2 µg/mL (≈ 4.08 µM)

SMILES: Cc1cccc(-c2nc(CN3CCN(c4ccnc5cc(-c6cccnc6)ccc45)CC3)no2)c1C
- remaining at 2 h, 1 µM [2]: 18.1%
- MIC (Escherichia coli): > 32 µg/mL
- MIC (Enterococcus faecium): > 32 µg/mL
- MIC (Pseudomonas aeruginosa): > 32 µg/mL
- IC50 (HepG2): > 100 µM
- MIC [1]: 0.25 µg/mL (≈ 0.525 µM)
- AUC(0-t) [5]: 8290 ng·h/mL
- Tmax [6]: 30 min
- MRT last [7]: 1.34 h
- MIC (Acinetobacter baumannii): > 32 µg/mL
- remaining at 0.5 h, 1 µM [8]: 47.3%
- MIC (Staphylococcus aureus): > 32 µg/mL
- half-life [9]: 56.4 min
- remaining at 0.25 h, 1 µM [10]: 65.1%
- MIC (Klebsiella pneumoniae): > 32 µg/mL
- Cmax [12]: 6410 ng/mL
- AUC(0-inf) [13]: 8310 ng·h/mL
- %AUCextra [14]: 0.22%
- remaining at 2 h, 1 µM [16]: 78%
- remaining at 1 h, 1 µM [17]: 31.7%

SMILES: COc1cc(OC)cc(-c2nc(CN3CCN(c4ccnc5cc(Cl)ccc45)CC3)no2)c1
- MIC [1]: 32 µg/mL (≈ 68.7 µM)

SMILES: c1cncc(-c2ccc3c(N4CCN(Cc5noc(C6CCCC6)n5)CC4)ccnc3c2)c1
- remaining at 2 h, 1 µM [2]: 21.9%
- MIC (Escherichia coli): 256 µg/mL (≈ 581 µM)
- MIC (Enterococcus faecium): 64 µg/mL (≈ 145 µM)
- MIC (Pseudomonas aeruginosa): 512 µg/mL (≈ 1160 µM)
- IC50 (HepG2): > 50 µM
- MIC [1]: 0.25 µg/mL (≈ 0.567 µM)
- AUC(0-t) [5]: 20000 ng·h/mL
- Tmax [6]: 30 min
- MRT last [7]: 1.31 h
- MIC (Acinetobacter baumannii): 512 µg/mL (≈ 1160 µM)
- remaining at 0.5 h, 1 µM [8]: 54.8%
- MIC (Staphylococcus aureus): 512 µg/mL (≈ 1160 µM)
- half-life [9]: 45 min
- remaining at 0.25 h, 1 µM [10]: 60.8%
- MIC (Klebsiella pneumoniae): 256 µg/mL (≈ 581 µM)
- Cmax [12]: 9600 ng/mL
- AUC(0-inf) [13]: 20200 ng·h/mL
- %AUCextra [14]: 0.71%
- remaining at 2 h, 1 µM [16]: 97.8%
- remaining at 1 h, 1 µM [17]: 38%

SMILES: Clc1ccc2c(N3CCN(Cc4noc(C5CCCC5)n4)CC3)ccnc2c1
- MIC [1]: 32 µg/mL (≈ 80.4 µM)

SMILES: COc1cc(OC)cc(-c2nc(CN3CCN(c4ccnc5cc(-c6ccncc6)ccc45)CC3)no2)c1
- MIC [1]: > 128 µg/mL

SMILES: CC(C)c1ccc(-c2nc(CN3CCN(c4ccnc5cc(-c6cccnc6)ccc45)CC3)no2)cc1
- remaining at 2 h, 1 µM [2]: 23%
- MIC (Escherichia coli): > 32 µg/mL
- MIC (Enterococcus faecium): > 32 µg/mL
- MIC (Pseudomonas aeruginosa): > 32 µg/mL
- IC50 (HepG2): > 100 µM
- MIC [1]: 0.25 µg/mL (≈ 0.51 µM)
- AUC(0-t) [5]: 11900 ng·h/mL
- Tmax [6]: 30 min
- MRT last [7]: 1.38 h
- MIC (Acinetobacter baumannii): > 32 µg/mL
- remaining at 0.5 h, 1 µM [8]: 56.8%
- MIC (Staphylococcus aureus): > 32 µg/mL
- half-life [9]: 63 min
- remaining at 0.25 h, 1 µM [10]: 74.1%
- MIC (Klebsiella pneumoniae): > 32 µg/mL
- Cmax [12]: 7440 ng/mL
- AUC(0-inf) [13]: 11900 ng·h/mL
- %AUCextra [14]: 0.6%
- remaining at 2 h, 1 µM [16]: 76.5%
- remaining at 1 h, 1 µM [17]: 40.1%

SMILES: Fc1cc(F)cc(-c2nc(CN3CCN(c4ccnc5cc(Cl)ccc45)CC3)no2)c1
- MIC [1]: > 128 µg/mL

SMILES: c1cc(-c2ccc3c(N4CCN(Cc5noc(C6CCCC6)n5)CC4)ccnc3c2)ccn1
- MIC [1]: 2 µg/mL (≈ 4.54 µM)

SMILES: COc1cc(OC)cc(-c2nc(CN3CCN(c4ccnc5cc(-c6cc(F)cc(F)c6)ccc45)CC3)no2)c1
- MIC [1]: 256 µg/mL (≈ 471 µM)

SMILES: Fc1cc(F)cc(-c2ccc3c(N4CCN(Cc5noc(C6CCCC6)n5)CC4)ccnc3c2)c1
- MIC [1]: 128 µg/mL (≈ 269 µM)

SMILES: Fc1cc(F)cc(-c2nc(CN3CCN(c4ccnc5cc(-c6ccncc6)ccc45)CC3)no2)c1
- MIC [1]: 16 µg/mL (≈ 33 µM)

SMILES: Cc1cccc(-c2nc(CN3CCN(c4ccnc5cc(-c6cc(F)cc(F)c6)ccc45)CC3)no2)c1C
- MIC [1]: 32 µg/mL (≈ 62.6 µM)

SMILES: Fc1cc(F)cc(-c2ccc3c(N4CCN(Cc5noc(-c6cc(F)cc(F)c6)n5)CC4)ccnc3c2)c1
- MIC [1]: 64 µg/mL (≈ 123 µM)

SMILES: N#Cc1cccc(-c2nc(CN3CCN(c4ccnc5cc(-c6ccncc6)ccc45)CC3)no2)c1
- MIC [1]: 32 µg/mL (≈ 67.6 µM)

SMILES: Cc1cccc(-c2nc(CN3CCN(c4ccnc5cc(Cl)ccc45)CC3)no2)c1C
- MIC [1]: 64 µg/mL (≈ 147 µM)

SMILES: COc1ccc(CCN2CCC(Nc3nc4ccccc4n3Cc3ccc(F)cc3)CC2)cc1 [ASTEMIZOLE]
- IC50 (HepG2): 7.97 µM

SMILES: O=C(O)c1cn(C2CC2)c2cc(N3CCNCC3)c(F)cc2c1=O [CIPROFLOXACIN]
- MIC (Escherichia coli): 0.007 µg/mL (≈ 0.0211 µM)
- MIC (Enterococcus faecium): 8 µg/mL (≈ 24.1 µM)
- MIC (Pseudomonas aeruginosa): < 1 µg/mL
- MIC (Acinetobacter baumannii): < 1 µg/mL
- MIC (Staphylococcus aureus): < 1 µg/mL
- MIC (Klebsiella pneumoniae): < 1 µg/mL

SMILES: NNC(=O)c1ccncc1 [ISONIAZID]
- MIC [1]: 0.015 µg/mL (≈ 0.109 µM)

SMILES: CO[C@H]1/C=C/O[C@@]2(C)Oc3c(C)c(O)c4c(O)c(c(/C=N/N5CCN(C)CC5)c(O)c4c3C2=O)NC(=O)/C(C)=C\C=C\[C@H](C)[C@H](O)[C@@H](C)[C@@H](O)[C@@H](C)[C@H](OC(C)=O)[C@@H]1C [RIFAMPIN]
- Emax [3]: 4.2 log10CFU/ml
- Emax [4]: 6.2 log10CFU/ml
- MIC [1]: 0.03 µg/mL (≈ 0.0365 µM)
- Emax [11]: 6.3 log10CFU/ml
- Emax [15]: 6.2 log10CFU/ml

SMILES: CN[C@H](CC(C)C)C(=O)N[C@H]1C(=O)N[C@@H](CC(N)=O)C(=O)N[C@H]2C(=O)N[C@H]3C(=O)N[C@H](C(=O)N[C@H](C(=O)O)c4cc(O)cc(O)c4-c4cc3ccc4O)[C@H](O)c3ccc(c(Cl)c3)Oc3cc2cc(c3O[C@@H]2O[C@H](CO)[C@@H](O)[C@H](O)[C@H]2O[C@H]2C[C@](C)(N)[C@H](O)[C@H](C)O2)Oc2ccc(cc2Cl)[C@H]1O [VANCOMYCIN]
- MIC (Escherichia coli): > 512 µg/mL
- MIC (Enterococcus faecium): < 1 µg/mL
- MIC (Pseudomonas aeruginosa): 512 µg/mL (≈ 353 µM)
- MIC (Acinetobacter baumannii): 256 µg/mL (≈ 177 µM)
- MIC (Klebsiella pneumoniae): 512 µg/mL (≈ 353 µM)
